Measured values from patent publication US7825146B2, “Sulfonamide derivative having isoxazole ring” (Shionogi & Co., Ltd., priority 2003, dated 2010).

Legend:
MMP-12 = molecular target: T1, MMP-12 (Homo sapiens, UniProt P39900); experiment: Assay for inhibitory activities on MMPs (fluorogenic MOCAc peptide substrate): MMP-12; assay type: biochemical; settings: catalytic domain 100Phe-263Gly
T1 construct: In regard to MMP-12, catalytic domain(^100Phe˜^263Gly) was amplified with RT-PCR; His-tag; enterokinase digestion-site; made in house
T1 sequence (P39900 100-263): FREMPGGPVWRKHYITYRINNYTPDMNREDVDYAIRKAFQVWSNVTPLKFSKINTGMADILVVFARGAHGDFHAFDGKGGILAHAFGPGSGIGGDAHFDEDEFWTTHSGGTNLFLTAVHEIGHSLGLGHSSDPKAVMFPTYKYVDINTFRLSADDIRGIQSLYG
Protocol: In regard to MMP-12, catalytic domain(^100Phe˜^263Gly) was amplified with RT-PCR from Human Placenta Total RNA. This was cloned in Escherichia. coli expression vector pTrc99AHE inserted with His-tag sequence and enterokinase digestion-site, induced and expressed by IPTG (Isopropyl-β-D-thiogalactopyranoside) and expressed in a insoluble fraction. Isolation of MMP-12 from an insoluble fraction was carried out by dissolving in modifier (6M urea) by a usual method and purification with metal chelate chromatography (Ni Chelateing Sepharose). And then removing modifier (6M urea) with dialysis and refolding of the enzyme spontaneously gave activated MMP-12.
(§1) The enzymatic activity on MMPs was analyzed by the method described in “C. Graham Knight, Frances Willenbrock and Gillian Murphy: A novel coumarin-labelled peptide for sensitive continuous assays of the matrix metalloproteinases: FEBS LETT., 296, (1992), 263-266”. The substrate: MOCAc-Pro-Leu-Gly-Leu-A2Pr(DNP)-Ala-Arg-NH2 was purchased from Peptide Institute, Inc., Osaka, Japan. The measurement of the inhibitory activities (IC50) was carried out by the following four methods; • (A) Reaction with substrate, enzyme (MMPs) and inhibitor • (B) Reaction with substrate and inhibitor, without enzyme • (C) Reaction with substrate and enzyme (MMPs), without inhibitor • (D) Reaction with substrate only IC50 values were calculated by using the following formula and each fluorescence values of above four methods (A to D).
(§2) The value of inhibitory activity against MMP-2, MMP-8, MMP-9, MMP-12, and MMP-13 measured by above mentioned methods are shown in Table 36, 37, 38, 39, and 40 respectively.

MMP-8 = molecular target: T2, MMP-8 (Homo sapiens, UniProt P22894); experiment: Assay for inhibitory activities on MMPs (fluorogenic MOCAc peptide substrate): MMP-8; assay type: biochemical; settings: catalytic domain 99Phe-262Gly
T2 construct: In regard to MMP-8, catalytic domain (^99Phe˜^262Gly) was amplified with PCR; His-tag; enterokinase digestion-site; made in house
T2 sequence (P22894 99-262): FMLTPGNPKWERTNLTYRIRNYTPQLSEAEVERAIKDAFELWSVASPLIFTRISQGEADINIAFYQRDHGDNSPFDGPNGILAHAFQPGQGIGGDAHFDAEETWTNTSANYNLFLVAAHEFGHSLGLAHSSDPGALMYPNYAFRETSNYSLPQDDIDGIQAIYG
Excerpt: In regard to MMP-8, catalytic domain (^99Phe˜^262Gly) was amplified with PCR using commercial available Human Bone Marrow cDNA. This was cloned in Escherichia. coli expression vector pTrc99AHE inserted with His-tag sequence and enterokinase digestion-site, induced and expressed by IPTG (Isdpropyl-β-D-thiogalactopyranoside) and expressed in a insoluble fraction (Thau F. Ho, M. Walid Qoronfleh, Robert C. Wahl, Trica A. Pulvino, Karen J. Vavra, Joe Falvo, Tracey M. Banks, Patricia G. Brake and Richard B. Ciccarelli: Gene expression, purification and characterization of recombinant human neutrophil collagenase. Gene 146, (1994) 297-301, Prepared by the a improved method of this material). Isolation of MMP-8 from an insoluble fraction was carried out by dissolving in modifier (6M urea) by a usual method and purification with metal chelate chromatography. And then removing modifier (6M urea) with dialysis and refolding of the enzyme spontaneously gave activated MMP-8.
as §1, §2

Structure (SMILES)	IC50 (MMP-12)	IC50 (MMP-8)
C[C@H](NS(=O)(=O)c1ccc(-c2cc(-c3ccc(OC(F)(F)F)cc3)no2)cc1)C(=O)O [Example A-6]	0.000889 µM	–
CC(C)[C@@H](NS(=O)(=O)c1ccc(-c2cc(-c3ccc(C(F)(F)F)cc3)no2)cc1)C(=O)O [Example A-20]	0.000723 µM	–
CC(C)[C@H](NS(=O)(=O)c1ccc(-c2cc(-c3ccc(C(F)(F)F)cc3)no2)cc1)C(=O)O [Example A-21]	0.000608 µM	–
CC(C)[C@H](NS(=O)(=O)c1ccc(-c2cc(-c3ccc(Cl)cc3)no2)cc1)C(=O)O [Example A-23]	0.00086 µM	–
CC(C)[C@@H](NS(=O)(=O)c1ccc(-c2cc(-c3ccc(Br)cc3)no2)cc1)C(=O)O [Example A-24]	0.000806 µM	–
CC(C)[C@H](NS(=O)(=O)c1ccc(-c2cc(-c3ccc(Br)cc3)no2)cc1)C(=O)O [Example A-25]	0.000518 µM	–
COc1ccc(-c2cc(-c3ccc(S(=O)(=O)N[C@@H](C(=O)O)C(C)C)cc3)on2)cc1F [Example A-38]	0.000908 µM	–
COc1ccc(-c2cc(-c3ccc(S(=O)(=O)N[C@H](C(=O)O)C(C)C)cc3)on2)cc1F [Example A-39]	0.000708 µM	–
CC(C)[C@@H](NS(=O)(=O)c1ccc(-c2cc(-c3ccc(Cl)c(F)c3)no2)cc1)C(=O)O [Example A-40]	0.000861 µM	–
CC(C)[C@H](NS(=O)(=O)c1ccc(-c2cc(-c3ccc(Cl)c(F)c3)no2)cc1)C(=O)O [Example A-41]	0.00047 µM	–
Cc1ccc(-c2cc(-c3ccc(S(=O)(=O)N[C@@H](CC(C)C)C(=O)O)cc3)on2)cc1 [Example A-61]	0.00081 µM	–
CC(C)C[C@H](NS(=O)(=O)c1ccc(-c2cc(-c3ccc(C(F)(F)F)cc3)no2)cc1)C(=O)O [Example A-63]	0.000584 µM	–
CC(C)C[C@H](NS(=O)(=O)c1ccc(-c2cc(-c3ccc(Cl)cc3)no2)cc1)C(=O)O [Example A-65]	0.000492 µM	–
CC(C)C[C@H](NS(=O)(=O)c1ccc(-c2cc(-c3ccc(Br)cc3)no2)cc1)C(=O)O [Example A-66]	0.00043 µM	–
CC(C)C[C@H](NS(=O)(=O)c1ccc(-c2cc(-c3ccc(Cl)c(F)c3)no2)cc1)C(=O)O [Example A-81]	0.000357 µM	–
CC(C)C[C@H](NS(=O)(=O)c1ccc(-c2cc(-c3ccc(F)c(F)c3)no2)cc1)C(=O)O [Example A-84]	0.00069 µM	–
CCC(C)[C@H](NS(=O)(=O)c1ccc(-c2cc(-c3ccc(C(F)(F)F)cc3)no2)cc1)C(=O)O (stereo partly drawn) [Example A-102]	0.000592 µM	–
CCC(C)[C@H](NS(=O)(=O)c1ccc(-c2cc(-c3ccc(Cl)c(F)c3)no2)cc1)C(=O)O (stereo partly drawn) [Example A-104]	0.000379 µM	–
Cc1ccc(-c2cc(-c3ccc(S(=O)(=O)N[C@@H](C)C(=O)O)cc3)no2)cc1 [Example C-2]	0.000899 µM	–

Structure (SMILES)	IC50 (MMP-12)	IC50 (MMP-8)
CCc1ccc(-c2cc(-c3ccc(S(=O)(=O)N[C@@H](C)C(=O)O)cc3)no2)cc1 [Example C-3]	0.000547 µM	–
Cc1ccc(-c2cc(-c3ccc(S(=O)(=O)N[C@@H](C(=O)O)C(C)C)cc3)no2)cc1 [Example C-8]	0.000559 µM	–
Cc1ccc(-c2cc(-c3ccc(S(=O)(=O)N[C@H](C(=O)O)C(C)C)cc3)no2)cc1 [Example C-9]	0.000409 µM	–
CC(C)[C@H](NS(=O)(=O)c1ccc(-c2cc(-c3ccc(Cl)cc3)on2)cc1)C(=O)O [Example C-21]	0.000336 µM	–
CC(C)[C@H](NS(=O)(=O)c1ccc(-c2cc(-c3ccc(Br)cc3)on2)cc1)C(=O)O [Example C-23]	0.000205 µM	–
CC(C)[C@H](NS(=O)(=O)c1ccc(-c2cc(-c3ccc(C(F)(F)F)cc3)on2)cc1)C(=O)O [Example C-28]	0.000209 µM	–
Cc1ccc(-c2cc(-c3ccc(S(=O)(=O)N[C@@H](C(=O)O)C(C)C)cc3)no2)cc1F [Example C-38]	0.000245 µM	–
Cc1ccc(-c2cc(-c3ccc(S(=O)(=O)N[C@H](C(=O)O)C(C)C)cc3)no2)cc1F [Example C-39]	0.000238 µM	–
CC(C)[C@@H](NS(=O)(=O)c1ccc(-c2cc(-c3ccc(Cl)c(Cl)c3)on2)cc1)C(=O)O [Example C-40]	0.000575 µM	–
CC(C)[C@@H](NS(=O)(=O)c1ccc(-c2cc(-c3ccc(F)c(F)c3)on2)cc1)C(=O)O [Example C-49]	0.000834 µM	–
CC(C)[C@H](NS(=O)(=O)c1ccc(-c2cc(-c3ccc(F)c(F)c3)on2)cc1)C(=O)O [Example C-50]	0.000754 µM	–
Cc1ccc(-c2cc(-c3ccc(S(=O)(=O)N[C@@H](CC(C)C)C(=O)O)cc3)no2)cc1 [Example C-54]	0.000343 µM	–
CCc1ccc(-c2cc(-c3ccc(S(=O)(=O)N[C@@H](CC(C)C)C(=O)O)cc3)no2)cc1 [Example C-56]	0.000289 µM	–
CCCc1ccc(-c2cc(-c3ccc(S(=O)(=O)N[C@@H](CC(C)C)C(=O)O)cc3)no2)cc1 [Example C-58]	0.000216 µM	–
CSc1ccc(-c2cc(-c3ccc(S(=O)(=O)N[C@@H](CC(C)C)C(=O)O)cc3)no2)cc1 [Example C-62]	0.00029 µM	–
COc1ccc(-c2cc(-c3ccc(S(=O)(=O)N[C@@H](CC(C)C)C(=O)O)cc3)no2)cc1 [Example C-64]	0.000432 µM	–
CC(C)C[C@H](NS(=O)(=O)c1ccc(-c2cc(-c3ccc(Br)cc3)on2)cc1)C(=O)O [Example C-66]	0.000218 µM	–
CC(C)C[C@H](NS(=O)(=O)c1ccc(-c2cc(-c3ccc(Cl)cc3)on2)cc1)C(=O)O [Example C-68]	0.000295 µM	–
CC(C)C[C@H](NS(=O)(=O)c1ccc(-c2cc(-c3ccc(OC(F)(F)F)cc3)on2)cc1)C(=O)O [Example C-71]	0.000203 µM	–

Structure (SMILES)	IC50 (MMP-12)	IC50 (MMP-8)
CC(C)C[C@H](NS(=O)(=O)c1ccc(-c2cc(-c3ccc(C(F)(F)F)cc3)on2)cc1)C(=O)O [Example C-73]	0.000251 µM	–
Cc1ccc(-c2cc(-c3ccc(S(=O)(=O)N[C@H](CC(C)C)C(=O)O)cc3)no2)s1 [Example C-74]	–	0.00416 µM
CCc1ccc(-c2cc(-c3ccc(S(=O)(=O)N[C@@H](CC(C)C)C(=O)O)cc3)no2)s1 [Example C-77]	0.000676 µM	–
CC(C)C[C@@H](NS(=O)(=O)c1ccc(-c2cc(-c3ccc(Cl)s3)on2)cc1)C(=O)O [Example C-78]	–	0.00463 µM
CC(C)C[C@H](NS(=O)(=O)c1ccc(-c2cc(-c3ccc(Cl)c(F)c3)on2)cc1)C(=O)O [Example C-82]	0.000233 µM	–
Cc1ccc(-c2cc(-c3ccc(S(=O)(=O)N[C@@H](CC(C)C)C(=O)O)cc3)no2)cc1F [Example C-84]	0.000245 µM	–
CCC(C)[C@H](NS(=O)(=O)c1ccc(-c2cc(-c3ccc(C)cc3)on2)cc1)C(=O)O (stereo partly drawn) [Example C-94]	0.000256 µM	–
CCC(C)[C@H](NS(=O)(=O)c1ccc(-c2cc(-c3ccc(Cl)s3)on2)cc1)C(=O)O (stereo partly drawn) [Example C-100]	–	0.00111 µM
CCC(C)[C@H](NS(=O)(=O)c1ccc(-c2cc(-c3ccc(Br)cc3)on2)cc1)C(=O)O (stereo partly drawn) [Example C-103]	0.000177 µM	–
CCC(C)[C@H](NS(=O)(=O)c1ccc(-c2cc(-c3ccc(C)c(F)c3)on2)cc1)C(=O)O (stereo partly drawn) [Example C-105]	0.000174 µM	–
CCC(C)[C@H](NS(=O)(=O)c1ccc(-c2cc(-c3ccc(F)cc3)on2)cc1)C(=O)O (stereo partly drawn) [Example C-106]	0.000781 µM	–
CCC(C)[C@H](NS(=O)(=O)c1ccc(-c2cc(-c3ccc(Cl)cc3)on2)cc1)C(=O)O (stereo partly drawn) [Example C-107]	0.000257 µM	–
CCC(C)[C@H](NS(=O)(=O)c1ccc(-c2cc(-c3ccc(F)c(F)c3)on2)cc1)C(=O)O (stereo partly drawn) [Example C-108]	0.000525 µM	–
Cc1ccc(-c2cc(-c3ccc(S(=O)(=O)N[C@@H](C(=O)O)C(C)(C)C)cc3)no2)cc1 [Example C-109]	0.000951 µM	–
Cc1ccc(-c2cc(-c3ccc(S(=O)(=O)N[C@@H](C(=O)O)C(C)(C)C)cc3)no2)s1 [Example C-110]	–	0.00252 µM
O=C(O)C[C@@H](NS(=O)(=O)c1ccc(-c2cc(-c3ccc(Cl)c(F)c3)on2)cc1)C(=O)O [Example C-117]	0.000967 µM	–
COc1ccc(-c2cc(-c3ccc(S(=O)(=O)N[C@H](CC(=O)O)C(=O)O)cc3)no2)cc1F [Example C-118]	0.000904 µM	–
Cc1ccc(-c2cc(-c3ccc(S(=O)(=O)N[C@H](Cc4ccccc4)C(=O)O)cc3)no2)cc1 [Example C-122]	0.000877 µM	–
CCc1ccc(-c2cc(-c3ccc(S(=O)(=O)N[C@H](Cc4ccccc4)C(=O)O)cc3)no2)cc1 [Example C-123]	0.00076 µM	–
